The source of these data is patent US6417159B1 (Queen's University at Kingston, priority 1996, dated 2002).

The target of one assay is T1, p75^NTR (Rattus norvegicus, UniProt P07174).
T1 construct: endogenous in cells; host or cells: PC12
T1 sequence (P07174 30-425): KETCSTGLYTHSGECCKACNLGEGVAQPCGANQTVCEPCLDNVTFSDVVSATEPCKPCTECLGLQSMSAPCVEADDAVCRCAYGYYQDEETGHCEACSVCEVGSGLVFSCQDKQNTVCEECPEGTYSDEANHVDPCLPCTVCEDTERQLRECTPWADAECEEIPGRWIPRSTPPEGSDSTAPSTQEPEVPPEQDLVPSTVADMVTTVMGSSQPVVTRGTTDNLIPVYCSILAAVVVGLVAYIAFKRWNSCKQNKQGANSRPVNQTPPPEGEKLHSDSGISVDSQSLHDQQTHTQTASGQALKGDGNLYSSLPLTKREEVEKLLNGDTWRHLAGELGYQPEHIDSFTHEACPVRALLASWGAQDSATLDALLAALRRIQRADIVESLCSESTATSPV
The assay can be described thus: [125I]NGF affinity cross-linking to p75NTR. The assay is classed as binding. The conditions noted are these: PC12 cells, 50 μM R3. As for the experimental part:
FIG. 7A illustrates the influence of peptide R3 on affinity cross-linking of TrkA and p75^NTR. Intact PC12 cells were treated with 50 μM R3 for 24 h (preinc.) in medium, harvested with CMF medium, and suspended at a concentration of 10^6·ml^−1 (or 10^7·m^−1 for immunoprecipitation studies) in HKR buffer. Cells were then incubated in the presence or absence of R3 (coinc.) for 15 min at 37° C. and cooled in ice. Cross-linking was performed by incubating cells with 1 nM [^125I]-NGF for 2 h at 4° C., adding EDC ([…]) and NHS (2 mM) or BS^3 (0.4 mM) as indicated, and incubating for 30 min at 25° C. Cells were washed three times in HKR buffer and the pellet dissolved in reducing SDS sample buffer or in lysis buffer (1% NP-40, 10% glycerol, 1 mM PMSF, 10 μg-ml^−1 aprotinin, 1 μg/ml leupeptin, […] o-vanadate in TBS) for immunoprecipitation (lanes 4 and 8). For immunoprecipitation, the cellular debris was removed by centrifugation and the supernatant incubated with 1 μg anti-p75^NTR monoclonal Ab 192 (Cedarlane Laboratories Ltd.) or 1 μg anti-TrkA polyclonal Ab (a gift from Dr. W. Mobley, University of California, San Francisco) for 4 h at 4° C. Immunoprecipates were isolated by incubating with 50 μl of a 50% solution of protein A-SEPHAROSE™ (anti-Trk) or goat anti-mouse agarose (Ab 192) for 2 h at 4° C. Precipitates were washed 3 times in lysis buffer and dissolved in sample buffer. […]

In the next assay the test system is ciliary neurons. The assay can be described thus: CNTF survival effect on ciliary neurons. The assay is classed as cell-based.
Another assay has as its system PC12 cells. The assay can be described thus: NGF-mediated neurite growth by PC12 cells. The assay is classed as cell-based, rat. As for the experimental part:
PC12 cells or PC12^nnr5 cells (Loeb et al., 1991) were seeded on poly-D-lysine-coated (0.1 mg·ml^−1, overnight) 96-well microculture dishes (Falcon) at approximately 800 cells per well with RPMI with 10% fetal calf serum. Peptides were added to replicate wells 48 hours before, or at the time of, addition of NGF. NGF was prepared by the method of Mobley et al. (1976) and used at 1-2 nM. Other additives were diluted at least 100-fold and added to the wells as described. At various times following incubation at 37° C., 5% CO2, wells were scored for neurite-bearing cells by serial counting of representative circumferences of each well.
A Leitz Diavert inverted microscope with phase optics was used to score neurite growth. For both PC12 cells and sensory neurons, a neurite was scored as such if its calibre from origin to terminal was approximately the same and the length was equal to or greater than 1.5 cell body diameters.

As for LDALLAALRRIQR [R3], the “Affinity cross-linking of [125I]NGF to p75NTR monomers or homodimers, in words” value with p75^NTR is “not affected”. Besides, the “Influence on survival effect of CNTF on ciliary neurons, in words” value with ciliary neurons is “no influence”. Moreover, in the assay with PC12 cells (10 mM Mg^+2), the “Effect of R3 on enhancement of NGF-mediated neurite growth in presence of Mg2+, in words” value is listed as “inhibited completely”. For the same sequence, in the assay on PC12 cells (PC12 cells pre-treated with pertussis toxin), the “Neurite growth-enhancing effect of R3 in presence of pertussis toxin, in words” value is on record as “did not influence”. The “Effect on NGF-mediated neurite growth, co-incubation, in words” value in the assay on PC12 cells (PC12 cells, peptide co-incubated with NGF) is given as “enhanced temporally the neurite growth response”. Moreover, the “Time of maximal effect on NGF-mediated neurite growth” value with PC12 cells (all concentrations of R3) lay in the range of 40 to 48 h. Also, the “Effect on neurite growth response to NGF, pre-incubation, in words” value in the assay with PC12 cells (peptide present 24 or 48 hours prior to addition of NGF) was “inhibited transiently”.
